From ChEMBL document CHEMBL1122550

assay: The ability to displace [3H]colchicine binding to rat brain tubulin protein; parameters: concentration or dose not given beside the values; settings: concentration not given here

| inhibition [%] | SMILES |
| --- | --- |
| 65 | COc1cc2c(c(OC)c1OC)-c1ccc(OC)c(=O)cc1[C@@H](NC(=O)COC(=O)[C@H]1CC(C)(C)N([O])C1(C)C)CC2 |
| 0 | COc1cc2c(c(OC)c1OC)-c1ccc(OC)c(=O)cc1[C@@H](NC(=O)[C@@H]1CC(C)(C)N([O])C1(C)C)CC2 |
| 72 | COc1cc2c(c(OC)c1OC)-c1ccc(OC)c(=O)cc1[C@@H](NC(=O)COC(=O)[C@@H]1CC(C)(C)N([O])C1(C)C)CC2 |
| 24 | COc1c(COC(=O)C2CC(C)(C)N([O])C2(C)C)c2c(c(OC)c1OC)-c1ccc(OC)c(=O)cc1[C@@H](NC(C)=O)CC2 (stereo partly specified) |
| 0 | COc1cc2c(c(OC)c1OC)-c1ccc(OC)c(=O)cc1[C@@H](NC(=O)[C@H]1CC(C)(C)N([O])C1(C)C)CC2 |
| 60 | COc1cc2c(c(OC)c1OC)-c1ccc(OC)c(=O)cc1[C@@H](NC(=O)COC(=O)C1CC(C)(C)N([O])C1(C)C)CC2 (stereo partly specified) |
